Data taken from article PMC9822066 (Molecules, 2022).
Structures can show the parent of a compound that is named as a salt. Where two headings read alike, the source gives them in different places.

Legend:
hMAO B = biological target: T1, hMAO B (Homo sapiens, UniProt P27338); assay: Fluorometric MAO assay, hMAO B inhibition; assay type: biochemical; details: mean ± SEM of two independent experiments, read-out: hMAO B %Inh. at 1 µM
T1 sequence (P27338 1-520): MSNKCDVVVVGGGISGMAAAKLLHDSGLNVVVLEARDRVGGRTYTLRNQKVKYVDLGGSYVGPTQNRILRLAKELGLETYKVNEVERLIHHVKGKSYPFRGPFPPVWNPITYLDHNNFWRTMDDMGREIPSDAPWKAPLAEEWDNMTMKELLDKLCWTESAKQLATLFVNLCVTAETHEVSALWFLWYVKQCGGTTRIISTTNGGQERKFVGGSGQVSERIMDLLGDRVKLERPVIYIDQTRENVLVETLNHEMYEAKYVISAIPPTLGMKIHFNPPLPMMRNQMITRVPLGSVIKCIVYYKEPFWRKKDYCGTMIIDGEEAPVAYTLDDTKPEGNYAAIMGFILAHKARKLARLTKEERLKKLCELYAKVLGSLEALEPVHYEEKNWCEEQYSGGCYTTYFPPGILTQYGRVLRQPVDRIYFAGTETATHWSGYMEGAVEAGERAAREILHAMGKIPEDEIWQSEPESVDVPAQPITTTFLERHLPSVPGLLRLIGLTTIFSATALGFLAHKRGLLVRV

[1] = biological target: BuChE from equine serum (eqBuChE) (Equus caballus, UniProt P81908); assay: biochemical; assay type: biochemical; details: for IC50: mean ± SEM, triplicate independent experiments
[2] = biological target: T2, electric eel AChE (eeAChE) (Electrophorus electricus, UniProt O42275); assay: biochemical; details: for inhibition at 10 µM: read-out: eeAChE % Inh. at 10 µM; for IC50: mean ± SEM, triplicate independent experiments, read-out: eeAChE IC50
T2 construct: purchased Sigma–Aldrich (Steinheim, Germany)

human H3R = biological target: T3, human H3R (Homo sapiens, UniProt Q9Y5N1); assay: [3H]Nα-methylhistamine radioligand binding assay in HEK293 cells stably expressing hH3R
T3 construct: expressed in transfected cells; host or cells: HEK293
Protocol: Final compounds were tested for their H3R affinity in a radioligand binding assay using [^3H]N^α-methylhistamine as radioligand in HEK293 cells stably expressing hH3R [25]. […] Affinity to hH3R stably expressed in HEK293 cells was evaluated in a radioligand binding assay as described previously. […] The radioactivity was counted in a MicroBeta Trilux counter (PerkinElmer). Data were fitted to a one-site curve-fitting equation with Prism 6 (GraphPad Software, San Diego, CA, USA) and Ki values were calculated from IC50 values (from at least three experiments performed in duplicates) according to the Cheng−Prusoff equation [52].

[3] = mean value within the 95% CI, three repetitions, read-out: hH3R Ki

T2 sequence (O42275 24-633): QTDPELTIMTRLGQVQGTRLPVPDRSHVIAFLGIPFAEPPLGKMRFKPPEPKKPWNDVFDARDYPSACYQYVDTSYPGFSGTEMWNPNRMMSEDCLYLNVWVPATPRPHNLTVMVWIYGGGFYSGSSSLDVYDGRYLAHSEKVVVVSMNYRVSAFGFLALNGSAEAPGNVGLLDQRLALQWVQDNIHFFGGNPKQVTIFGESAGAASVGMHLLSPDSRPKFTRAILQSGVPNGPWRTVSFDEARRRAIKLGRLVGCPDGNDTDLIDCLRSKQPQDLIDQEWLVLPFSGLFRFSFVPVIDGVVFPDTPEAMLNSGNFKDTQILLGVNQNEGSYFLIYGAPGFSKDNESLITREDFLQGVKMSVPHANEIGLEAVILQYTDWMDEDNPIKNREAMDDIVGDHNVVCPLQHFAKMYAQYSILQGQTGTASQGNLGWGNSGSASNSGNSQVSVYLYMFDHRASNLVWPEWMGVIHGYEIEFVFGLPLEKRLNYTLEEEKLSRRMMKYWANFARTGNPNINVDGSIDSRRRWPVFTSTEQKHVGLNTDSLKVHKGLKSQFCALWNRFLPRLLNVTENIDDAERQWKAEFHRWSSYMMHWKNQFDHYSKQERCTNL
T3 sequence (Q9Y5N1 whole entry): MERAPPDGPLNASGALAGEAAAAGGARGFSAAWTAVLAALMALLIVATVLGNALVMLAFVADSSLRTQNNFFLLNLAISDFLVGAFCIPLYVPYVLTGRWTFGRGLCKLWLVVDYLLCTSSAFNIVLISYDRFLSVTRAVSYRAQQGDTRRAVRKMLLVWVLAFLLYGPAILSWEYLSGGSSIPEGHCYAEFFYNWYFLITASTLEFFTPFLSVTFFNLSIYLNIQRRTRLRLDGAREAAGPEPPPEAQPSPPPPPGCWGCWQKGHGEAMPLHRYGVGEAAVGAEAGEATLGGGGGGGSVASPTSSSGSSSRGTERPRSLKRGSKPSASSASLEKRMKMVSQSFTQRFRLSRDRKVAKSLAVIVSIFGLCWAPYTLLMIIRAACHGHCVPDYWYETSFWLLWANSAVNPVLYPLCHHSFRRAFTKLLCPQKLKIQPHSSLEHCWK
Chain of BuChE from equine serum (eqBuChE) (P81908 whole entry): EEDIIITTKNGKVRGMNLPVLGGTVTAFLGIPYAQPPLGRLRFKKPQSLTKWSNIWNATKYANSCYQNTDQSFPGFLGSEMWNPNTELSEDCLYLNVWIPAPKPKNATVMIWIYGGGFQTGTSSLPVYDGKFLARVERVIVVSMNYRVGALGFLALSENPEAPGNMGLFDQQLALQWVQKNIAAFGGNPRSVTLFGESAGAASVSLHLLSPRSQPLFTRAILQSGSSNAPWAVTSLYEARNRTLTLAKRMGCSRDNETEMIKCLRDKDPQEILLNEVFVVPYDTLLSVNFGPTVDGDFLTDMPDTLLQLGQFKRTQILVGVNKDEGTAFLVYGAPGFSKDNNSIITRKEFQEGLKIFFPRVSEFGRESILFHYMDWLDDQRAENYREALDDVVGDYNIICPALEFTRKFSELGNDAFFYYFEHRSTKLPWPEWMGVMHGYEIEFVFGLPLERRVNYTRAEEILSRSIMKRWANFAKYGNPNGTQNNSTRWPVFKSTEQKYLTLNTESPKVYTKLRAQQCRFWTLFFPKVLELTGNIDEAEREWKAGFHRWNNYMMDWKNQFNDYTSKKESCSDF

| Structure (SMILES) | inhibition at 1 µM (hMAO B) | selectivity eqBuChE versus eeAChE [1] | IC50 [1] | inhibition at 10 µM [2] | Ki (human H3R) | IC50 [2] | Ki (human H3R; [3]) |
| --- | --- | --- | --- | --- | --- | --- | --- |
| O=C(O)C(=O)O.O=C(c1ccccc1)c1ccccc1OCCCCCN1CCCCC1 [Compound 2, Phenyl (2-((5-(piperidin-1-yl)pentyl)oxy)phenyl)methanone hydrogen oxalate] | 23% | selective eqBuChE inhibitors | 1610 ± 60 nM | 22% | 371 nM |  |  |
| O=C(c1ccccc1)c1cccc(OCCCCCN2CCCCC2)c1 [Compound 3, Phenyl (3-((5-(piperidin-1-yl)pentyl)oxy)phenyl)methanone hydrogen oxalate] | 15% |  | 4010 ± 67 nM |  | 210 nM | 7750 ± 329 nM |  |
| O=C(c1ccccc1)c1ccc(OCCCCCN2CCCCC2)cc1 [Compound 4, Phenyl (4-((5-(piperidin-1-yl)pentyl)oxy)phenyl)methanone hydrogen oxalate] | 44% |  | 2480 ± 40 nM | 41% |  |  |  |
| O=C(c1ccc(Cl)cc1)c1ccc(OCCCCCN2CCCCC2)cc1 [Compound 5, (4-Chlorophenyl) (4-((5-(piperidin-1-yl)pentyl)oxy)phenyl)methanone hydrogen oxalate] | 18% |  | 1680 ± 17 nM |  | 20 nM | 2870 ± 71 nM |  |
| O=C(O)C(=O)O.O=C(c1ccccc1)c1ccccc1OCCCCCCN1CCCCC1 [Compound 7, (2-((6-(Piperidin-1-yl)hexyl)oxy)phenyl)(phenyl)methanone hydrogen oxalate] | 12% | selective eqBuChE inhibitors | 2110 ± 32 nM | 3% | 161 nM |  |  |
| O=C(c1ccc(Cl)cc1)c1ccc(OCCCCCCN2CCCCC2)cc1 [Compound 10, (4-Chlorophenyl) (4-((6-(piperidin-1-yl)hexyl)oxy)phenyl)methanone hydrogen oxalate] | 39% |  | 2460 ± 61 nM |  | 25 nM | 2670 ± 94 nM |  |
| O=C(c1ccc(F)cc1)c1ccc(OCCCCCCN2CCCCC2)cc1 [Compound 11, (4-Fluorophenyl) (4-((6-(piperidin-1-yl)hexyl)oxy)phenyl)methanone hydrogen oxalate] | 28% |  | 419 ± 2 nM |  | 26 nM | 3098 ± 9 nM |  |
| CC1CCCN(CCCCCOc2ccccc2C(=O)c2ccccc2)C1.O=C(O)C(=O)O (stereo not shown) [Compound 12, (2-((5-(3-Methylpiperidin-1-yl)pentyl)oxy)phenyl)(phenyl)methanone hydrogen oxalate] | 9% | selective eqBuChE inhibitors | 1610 ± 61 nM | 16% | 208 nM |  |  |
| CC1CCCN(CCCCCOc2cccc(C(=O)c3ccccc3)c2)C1 (stereo not shown) [Compound 13, (3-((5-(3-Methylpiperidin-1-yl)pentyl)oxy)phenyl)(phenyl)methanone hydrogen oxalate] | 8% |  | 3420 ± 78 nM |  | 78 nM | 3790 ± 104 nM |  |
| CC1CCCN(CCCCCOc2ccc(C(=O)c3ccc(Cl)cc3)cc2)C1 (stereo not shown) [Compound 15, (4-Chlorophenyl) (4-((5-(3-methylpiperin-1-yl)pentyl)oxy)phenyl)methanone hydrogen oxalate] | 19% |  | 2560 ± 50 nM |  |  | 2650 ± 87 nM | 37 nM |
| CC1CCCN(CCCCCOc2ccc(C(=O)c3ccc(F)cc3)cc2)C1 (stereo not shown) [Compound 16, (4-Fluorophenyl) (4-((5-(3-methylpiperidin-1-yl)pentyl)oxy)phenyl)methanone hydrogen oxalate] | 20% |  | 311 ± 6 nM |  | 12 nM | 2023 ± 6 nM |  |
| CC1CCCN(CCCCCCOc2ccccc2C(=O)c2ccccc2)C1.O=C(O)C(=O)O (stereo not shown) [Compound 17, (2-((6-(3-Methylpiperidin-1-yl)hexyl)oxy)phenyl)(phenyl)methanone hydrogen oxalate] | 8% | selective eqBuChE inhibitors | 2500 ± 28 nM | 20% | 152 nM |  |  |
| CC1CCCN(CCCCCCOc2ccc(C(=O)c3ccc(Cl)cc3)cc2)C1 (stereo not shown) [Compound 20, (4-Chlorophenyl) (4-((6-(3-methylpiperin-1-yl)hexyl)oxy)phenyl)methanone hydrogen oxalate] | 17% |  | 2520 ± 31 nM |  |  | 2740 ± 98 nM | 44 nM |
| CC1CCCN(CCCCCCOc2ccc(C(=O)c3ccc(F)cc3)cc2)C1 (stereo not shown) [Compound 21, (4-Fluorophenyl) (4-(6-(3-methylpiperin-1-yl)hexyloxy)phenyl)methanone hydrogen oxalate] | 23% |  | 2560 ± 40 nM |  |  | 2000 ± 46 nM | 75 nM |
| CC1CCN(CCCCCOc2cccc(C(=O)c3ccccc3)c2)CC1 [Compound 22, (3-((5-(4-Methylpiperidin-1-yl)pentyl)oxy)phenyl)(phenyl)methanone hydrogen oxalate] | 32% |  | 1700 ± 46 nM |  | 298 nM | 4450 ± 94 nM |  |
| CC1CCN(CCCCCOc2ccc(C(=O)c3ccccc3)cc2)CC1 [Compound 23, (4-((5-(4-Methylpiperidin-1-yl)pentyl)oxy)phenyl)(phenyl)methanone hydrogen oxalate] | 27% |  | 1570 ± 35 nM |  | 67 nM | 2600 ± 72 nM |  |
| CC1CCN(CCCCCCOc2cccc(C(=O)c3ccccc3)c2)CC1 [Compound 24, (3-((6-(4-Methylpiperidin-1-yl)hexyl)oxy)phenyl)(phenyl)methanone hydrogen oxalate] | 20% |  | 1060 ± 43 nM |  | 106 nM | 2460 ± 70 nM |  |
| CC1CCN(CCCCCCOc2ccc(C(=O)c3ccccc3)cc2)CC1 [Compound 25, (4-((6-(4-Methylpiperidin-1-yl)hexyl)oxy)phenyl)(phenyl)methanone hydrogen oxalate] | 22% |  | 1560 ± 50 nM |  | 53 nM | 2690 ± 47 nM |  |
| O=C(O)C(=O)O.O=C(c1ccccc1)c1ccccc1OCCCCCN1CCCCCC1 [Compound 26, (2-((5-(Azepan-1-yl)pentyl)oxy)phenyl)(phenyl)methanone hydrogen oxalate] | 3% | selective eqBuChE inhibitors | 384 ± 8 nM | 24% | 302 nM |  |  |
| O=C(c1ccccc1)c1cccc(OCCCCCN2CCCCCC2)c1 [Compound 27, (3-((5-(Azepan-1-yl)pentyl)oxy)phenyl)(phenyl)methanone hydrogen oxalate] | 14% |  | 901 ± 10 nM |  | 307 nM | 3660 ± 92 nM |  |
| O=C(c1ccc(Cl)cc1)c1ccc(OCCCCCN2CCCCCC2)cc1 [Compound 29, (4-Chlorophenyl)(4-(5-(azepan-1-yl)pentyloxy)phenyl)methanone hydrogen oxalate] | 26% |  | 676 ± 3 nM |  | 66 nM | 2240 ± 35 nM |  |
| O=C(c1ccc(F)cc1)c1ccc(OCCCCCN2CCCCCC2)cc1 [Compound 30, (4-Fluorophenyl) (4-((5-(azepan-1-yl)pentyl)oxy)phenyl)methanone hydrogen oxalate] | 30% |  | 224 ± 3 nM |  | 13 nM | 1110 ± 3 nM |  |
| O=C(O)C(=O)O.O=C(c1ccccc1)c1ccccc1OCCCCCCN1CCCCCC1 [Compound 31, (2-((6-(Azepan-1-yl)hexyl)oxy)phenyl)(phenyl)methanone hydrogen oxalate] | 5% | selective eqBuChE inhibitors | 317 ± 3 nM | 11% | 162 nM |  |  |
| O=C(c1ccc(Cl)cc1)c1ccc(OCCCCCCN2CCCCCC2)cc1 [Compound 34, (4-Chlorophenyl)(4-((6-(azepan-1-yl)hexyl)oxy)phenyl)methanone hydrogen oxalate] | 30% |  | 867 ± 2 nM |  | 133 nM | 2033 ± 18 nM |  |
| O=C(c1ccc(F)cc1)c1ccc(OCCCCCCN2CCCCCC2)cc1 [Compound 35, (4-((6-(Azepan-1-yl)hexyl)oxy)phenyl)(4-fluorophenyl)methanone hydrogen oxalate] | 24% |  | 161 ± 4 nM |  | 35 nM | 1654 ± 4 nM |  |
| Clc1ccc(CCCOCCCN2CCCCC2)cc1 [pitolisant, reference compound] |  |  |  | 3% |  |  |  |
